Data as given in a compilation of properties of binary mixtures (doi:10.1016/j.jct.2017.01.014).

Assay: xn = mol fraction of the nth substance listed
Conditions: 100 kPa

C=CN1CCCC1=O + CCCC[n+]1ccn(C)c1.O=S(=O)([N-]S(=O)(=O)C(F)(F)F)C(F)(F)F
speed of sound [m/s]
Conditions | x1 = 0.1377 | x1 = 0.2099 | x1 = 0.3148 | x1 = 0.4117 | x1 = 0.5061 | x1 = 0.6078 | x1 = 0.7032 | x1 = 0.79 | x1 = 0.8989 | x1 = 1
298.15 K | 1241.2 | 1249.4 | 1263 | 1278.3 | 1296.5 | 1321.4 | 1350.7 | 1384.6 | 1442.2 | –
303.15 K | 1229.8 | 1237.8 | 1251.1 | 1266.1 | 1283.9 | 1308.1 | 1336.6 | 1369.6 | 1425.6 | 1502.5
308.15 K | 1218.5 | – | – | 1253.8 | 1271.2 | 1294.7 | 1322.7 | 1354.8 | 1409.1 | 1483.7
313.15 K | 1207.3 | – | 1227.5 | 1241.7 | – | 1281.5 | 1308.7 | 1340 | 1392.8 | 1465
318.15 K | – | 1203.6 | – | 1229.7 | 1246.1 | 1268.4 | 1294.9 | 1325.3 | 1376.5 | –
323.15 K | 1185.3 | – | – | 1217.8 | 1233.8 | 1255.4 | 1281.1 | 1310.5 | 1360.3 | 1428.1

CCCC[n+]1ccn(C)c1.O=S(=O)([N-]S(=O)(=O)C(F)(F)F)C(F)(F)F + C=CN1CCCC1=O
x2 = 0
Conditions | speed of sound [m/s]
298.15 K | 1227.9
303.15 K | 1216.8
308.15 K | 1205.8
313.15 K | 1195
318.15 K | 1184.2
323.15 K | 1173.6
